Measurements: patent US5606020A, “6 (R)-l-erythro-5,6,7,8-tetrahydrobiopterin receptor” (Suntory Limited, priority 1991, dated 1997)
pKd: −log10 of the molar value.

Experiments:
6R-BH4 receptor [1] = molecular target: T1, 6R-BH4 receptor (Rattus norvegicus, UniProt P29476); test: Competitive binding test between various compounds and 13 nM [6-^3 H]6R-BH4, solubilized fraction of rat cerebellum; conditions: for affinity of the receptor to 6R-BH4 relative to its affinity to the compound (from IC50 data): 13 nM [6-^3 H]6R-BH4, solubilized fraction of rat cerebellum
T1 construct: solubilized fraction of rat cerebellum; from tissue; host or cells: rat cerebellum, P2 membrane fraction solubilized with CHAPS (not purified)
Protocol: The specificity of the receptor of the present invention in binding to 6R-BH4 can be confirmed by a competitive binding test with the use of various compounds at varying concentrations.
In this method, the above-mentioned compounds at varying concentrations (for example, biopterin as will be described in Example 6 hereinafter) are added as a ligand simultaneously with [6-^3 H]6R-BH4 to the reaction mixture and the reaction is performed. The ability of the receptor of the present invention to bind to 6R-BH4 will not be inhibited to any substantial extent by these ligands.
By using the solubilized fraction of rat cerebellum, a competitive binding test between various compounds at varying concentrations and 13 nM of [6-^3 H]6R-BH4 was carried out.
About 0.3 mg (protein) of the solubilized fraction obtained in Example 3 was incubated together with 13 nM of [6-^3 H]6R-BH4 in a 200 μl solution of 50 mM Tris hydrochloride (pH 7.4), 100 mM NaCl, 10 mM MgCl2, 2 mM ascorbic acid and 6 mM cysteine at 37° C. for 10 minutes. Then 3 mg/ml (final concentration) of bovine γ-globulin and 15% (final concentration) of polyethylene glycol 6000 were added to cease the reaction.
Next, the reaction mixture was cooled on ice for 10 minutes and then passed through a glass filter. After being washed 4 times with 4 ml portions of 8% polyethylene glycol and 10 mM Tris hydrochloride (pH 7.4), the filter was taken off and placed in a vial. 2 ml of ethanol and 8 ml of creasol (Nacalai Tesque) were added to the filter and the radioactivity on the filter was measured in a liquid scintillation counter.
The results thus obtained were referred to as total binding. Then various compounds at varying concentrations were added as a ligand simultaneously with [6-^3 H]6R-BH4 in the above procedure, and the reaction was effected.

[2] = molecular target: known enzymes which participate in the biosynthesis of 6R-BH4 or enzymes for which 6R-BH4 acts as a coenzyme; conditions: enzymes of 6R-BH4 biosynthesis or using 6R-BH4 as coenzyme; cited from earlier work
[3] = supplementation therapy; cited from earlier work
[4] = test system: release of neurotransmitter amines such as dopamine (DA), norepinephrine and serotonin; test: Release and liberation of neurotransmitters
6R-BH4 receptor [5] = molecular target: T1, 6R-BH4 receptor; test: Scatchard plot analysis of [6-^3 H]6R-BH4 binding to solubilized fraction of rat cerebellum
Protocol: The Scatchard plot analysis may be carried out, for example, as follows. In an appropriate buffer solution, for example, 50 mM Tris hydrochloride (pH 7.4), 100 mM NaCl, 10 mM MgCl2, 2 mM ascorbic acid and 6 mM cysteine solution, a fraction containing the receptor solubilized with CHAPS is incubated with [6-^3 H]6R-BH4 at various concentrations under appropriate conditions, for example, at 37° C. for 10 minutes. Then the radioactivity is measured by a conventional method and plotted. From the plots, Kd (dissociation constant) and Bmax are determined and employed as indicators of the affinity.
By using a determined amount of the solubilized fraction of rat cerebellum, Scatchard plot analysis with regard to the solubilized receptor protein of the present invention was performed by the conventional method. […]
The reaction mixture was cooled on ice for 10 minutes and then filtered through a glass filter. […] 2 ml of ethanol and 8 ml of creasol (Nacalai Tesque) were added to the filter and the radioactivity on the filter was measured in a liquid scintillation counter.
FIG. 4 is a graph showing the radioactivities which bound to the receptor when [6-^3 H]6R-BH4 was added at various concentrations to a determined amount of the solubilized receptor. […] Accordingly, the saturation of the specific binding can be calculated as the difference between the total and nonspecific bindings. […]

T1 sequence (P29476 whole entry): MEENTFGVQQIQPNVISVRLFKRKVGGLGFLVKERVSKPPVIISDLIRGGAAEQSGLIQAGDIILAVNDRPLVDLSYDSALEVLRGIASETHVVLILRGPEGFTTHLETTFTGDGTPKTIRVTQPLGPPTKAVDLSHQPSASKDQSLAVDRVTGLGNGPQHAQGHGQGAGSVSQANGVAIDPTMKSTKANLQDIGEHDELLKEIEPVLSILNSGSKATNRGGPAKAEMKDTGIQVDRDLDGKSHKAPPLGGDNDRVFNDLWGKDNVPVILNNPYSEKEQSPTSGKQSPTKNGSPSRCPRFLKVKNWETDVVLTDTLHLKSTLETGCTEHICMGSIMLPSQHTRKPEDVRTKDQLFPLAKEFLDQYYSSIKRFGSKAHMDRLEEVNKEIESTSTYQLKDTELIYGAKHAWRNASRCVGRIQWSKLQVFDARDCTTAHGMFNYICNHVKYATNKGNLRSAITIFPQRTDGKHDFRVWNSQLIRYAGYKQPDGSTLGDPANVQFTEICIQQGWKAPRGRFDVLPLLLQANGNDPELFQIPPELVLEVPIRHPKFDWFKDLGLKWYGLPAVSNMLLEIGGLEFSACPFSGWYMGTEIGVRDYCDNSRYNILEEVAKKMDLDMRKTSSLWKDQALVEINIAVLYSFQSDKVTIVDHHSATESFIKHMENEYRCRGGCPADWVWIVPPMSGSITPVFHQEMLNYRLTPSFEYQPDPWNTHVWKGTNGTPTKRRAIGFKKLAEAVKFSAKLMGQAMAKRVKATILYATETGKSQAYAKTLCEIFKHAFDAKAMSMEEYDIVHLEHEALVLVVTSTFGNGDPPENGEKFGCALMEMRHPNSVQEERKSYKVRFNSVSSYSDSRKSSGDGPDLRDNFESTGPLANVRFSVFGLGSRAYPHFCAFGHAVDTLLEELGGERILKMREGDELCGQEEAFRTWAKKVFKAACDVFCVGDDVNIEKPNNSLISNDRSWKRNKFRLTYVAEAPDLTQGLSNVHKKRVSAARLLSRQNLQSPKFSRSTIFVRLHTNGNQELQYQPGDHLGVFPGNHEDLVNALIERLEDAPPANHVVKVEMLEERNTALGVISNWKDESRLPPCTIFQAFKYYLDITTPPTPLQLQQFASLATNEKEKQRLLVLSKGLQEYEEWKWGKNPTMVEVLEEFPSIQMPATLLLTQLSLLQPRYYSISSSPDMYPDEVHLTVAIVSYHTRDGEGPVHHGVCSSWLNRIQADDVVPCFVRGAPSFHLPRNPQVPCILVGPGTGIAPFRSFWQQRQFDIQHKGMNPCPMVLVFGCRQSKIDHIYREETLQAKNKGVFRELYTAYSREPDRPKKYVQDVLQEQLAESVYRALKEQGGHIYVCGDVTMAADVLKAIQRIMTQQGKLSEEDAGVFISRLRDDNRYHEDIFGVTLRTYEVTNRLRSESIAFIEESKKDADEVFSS

C[C@H](O)[C@H](O)[C@@H]1CNc2nc(N)[nH]c(=O)c2N1 [6S-BH4]
affinity of the receptor to 6R-BH4 relative to its affinity to the compound (from IC50 data) (6R-BH4 receptor [1]): > 1,000 times

C[C@H](O)[C@H](O)C1=Nc2c(nc(N)[nH]c2=O)NC1 [BH2, 7,8-dihydrobiopterin]
affinity of the receptor to 6R-BH4 relative to its affinity to the compound (from IC50 data) (6R-BH4 receptor [1]): more than 50 times

C[C@H](O)[C@H](O)[C@H]1CNc2nc(N)[nH]c(=O)c2N1 [6R-BH4, 6(R)-L-erythro-5,6,7,8-tetrahydrobiopterin]
Kd for known enzymes [2]: several ten
treatment of malignant phenylketonuria, juvenile Parkinson's disease and infantile autism of the dysbolism type [3]: effective
liberation of glutamic acid, aspartic acid or GABA via DA and release of acetylcholine via serotonin [4]: enhances
release and liberation of neurotransmitter amines such as dopamine (DA), norepinephrine and serotonin [4]: enhances
Bmax (maximum binding constant) (6R-BH4 receptor [5]): 550 fmol/mg protein
pKd (6R-BH4 receptor [5]; 37° C. for 10 minutes, read-out: Kd (dissociation constant)): 7.68

Nc1nc2c(c(=O)[nH]1)NC(CNc1ccc(C(=O)N[C@@H](CCC(=O)O)C(=O)O)cc1)CN2 (stereo partly drawn) [FAH4, tetrahydrofolic acid]
binding ability to the receptor (6R-BH4 receptor [1]; competitive binding, solubilized fraction of rat cerebellum): does not show any substantial binding ability
